Data: US10500169B2, “Supression of IgE production by compounds derived from traditional chinese medicine” (Sean N. Parker Foundation, priority 2014, dated 2019)
Values after ≈ are worked out from the molar mass of the structure shown. Values belong to the molecule of their own block, whether it stands above or below them.

Legend:
U266 cells [1] = experiment: IgE production by U266 myeloma cells, ELISA of supernatants; assay type: cell-based, human; details: for effect on IgE production by U266 cells (in words): different concentrations; for IC50: 6 days culture, read-out: IC50 of inhibition of IgE production by U266 cells
Method: The IgE producing human U266 myeloma cell line (American Type Culture Collection; Rockville, Md.) has been used for screening pharmaceutical agents for IgE inhibitory effects, and thus this cell line was used to test the potential IgE inhibitory effects of herb extracts and purified compounds. Cells were cultured at 37° C. under 5% CO2 in complete media containing RPMI 1640 medium supplemented, 10% FBS, 1 mM sodium pyruvate, 1×10^-5 M β-ME and 0.5% penicillin-streptomycin. Cells were grown at an initial concentration of 2×10^5 cells/mL. FAHF-2 and B-FAHF-2, individual herb extracts and isolated compounds at different concentrations were added at day 0. Supernatants were harvested after 6 days culture, and IgE levels were determined by using an ELISA Kit (Mabtech Inc, OH). In each experiment, we run duplicate ELISA. In vitro experiments were repeated at least 3 times.
Human U266 myeloma cells (American Type Culture Collection; Rockville, Md.) were cultured in complete medium (RPMI 1640 medium supplemented, 10% FBS, 1 mM sodium pyruvate, 1×10^−5 M β-ME and 0.5% penicillin-streptomycin) at 37° C. under 5% CO2. Cells were grown at an initial concentration of 2×10^5 cells/mL with purpurin and alizarin from Rubia cordifolia L. at different concentrations (0.31, 0.62, 1.25, 2.5, 5 μg/mL), and with arctiin and arctigenin from Arctium lappa L. at different concentrations ([…]) for 6 days. The supernatants were harvested on day 6 for total IgE analysis using ELISA.

[2] = test system: peanut allergic C3H/HeJ mice; experiment: Peanut allergic mouse model, 400 μg of compound intragastrically daily for 4 weeks; assay type: in vivo; details: for body temperature following PN challenge: 30 minutes after oral challenge; for histamine level in plasma: week 15 post therapy challenge
Method: Freshly ground, whole roasted peanuts were homogenized in sterile PBS (Mediatech, VA) until a smooth suspension was obtained. Female C3H/HeJ mice were sensitized intragastrically (i.g.) with ground PN (10 mg/mouse) and cholera toxin (20 μg), on three consecutive days at week 0, and once a week for 5 weeks, and boosted at weeks 6 and 8 with 50 mg/mouse of PN and cholera toxin (20 μg) (FIG. 37A) as previous described^(40). Mice were intragastrically administered with 400 μg of three different active compounds (arctiin and arctigenin from Arctium lappa L., and 1,3-Dihydroxyanthraquinone from Rubia cordifolia L.) daily 24 h after the week 8 boosting and under this treatment for 4 weeks. Eight PN sensitized/boosted mice receiving 0.5 ml of 0.1% DMSO in water twice daily for the same period of treatment time as sham control mice for this experiment.
Anaphylactic symptoms were evaluated 30 min after challenge dose by two investigators using a scoring system described previously: […]; 1, scratching and rubbing around the snout and head; 2, puffiness around the eyes and mouth, pilar erection and reduced activity with an increased respiratory rate; 3, wheezing, labored respiration and cyanosis around the mouth; 4, no activity after prodding, or tremors, and convulsion; 5, death due to anaphylaxis.
To test the IgE inhibition effect of arctiin, arctigenin, and 1,3-dihydroxyanthraquinone in vivo, we treated peanut allergic mice with 400 μg of each active compound daily for four weeks, as shown in FIG. 37A.^(2)

[3] = test system: peanut sensitized C3H/HeJ Mice; experiment: Peanut allergic mouse model, 1,3-Dihydroxyanthraquinone 200 μg per mouse per day for seven weeks; assay type: in vivo
Method: FIG. 10 illustrates the in vivo experiment protocol. C3H/HeJ Mice were orally sensitized with 10 mg peanut and […] weekly for 5 weeks as described in methods. At weeks 6, 7 and 8, mice were boosted with 50 mg peanut mixed with cholera toxin. Seven weeks of 1,3-Dihydroxyanthraquinone (200 μg per mouse per day) treatment was started at W6. Mice were challenged with PN at week 13 and again at week 18. Mice were sacrificed 48 hours after last challenge.

human PBMCs = experiment: IgE production by PBMCs from food allergic patients stimulated with rIL-4 and anti-CD40 mAb, ELISA; assay type: cell-based; details: Homo sapiens, PBMC, 240 h; 20 μg/mL, 10 days, rIL-4 100 ng/mL + anti-CD40 mAb 1 μg/mL
Method: PBMCs were isolated by Ficoll Hypaque (Pharmacia, Piscataway, N.J.) using density gradient centrifugation at 1800 RPM for 30 minutes, and washed 3 times in PBS. To determine the optimal stimulation of IgE production by PBMCs, PBMCs at 1.5×10^6 cells/mL were suspended in complete RPMI medium (200 μM L-glutamine, 1% penicillin/streptomycin, 25 mM HEPES, 10% heat inactivated fetal calf serum), and co-stimulated with human recombinant IL-4 (rIL-4) at 0.01 and 0.1 μg/mL (R&D Systems, Minneapolis, Minn., USA) and anti-CD40 monoclonal antibody (mAb) at […] (R&D) for 10 and 14 days. At the end of incubation, the supernatants were collected and IgE levels were analyzed using ELISA kit (Mabtech Inc, OH). Since PBMCs stimulated with 100 ng/mL rIL-4 and 1 μg/mL anti-CD40 mAb produced the highest level of IgE, we used this culture condition for the subsequent studies. PBMCs were stimulated with 100 ng/mL rIL-4 and 1 μg/mL anti-CD40 mAb and cultured in the presence or absence of 20 μg/mL of the two purified compounds for 10 days for screening active compounds, and at different concentrations (0.15, 0.31, 0.62, 1.25, 2.5, 5, 10 μg/mL) to examine dose responses for the effective compounds. IgE level was evaluated using ELISA. The percentage of IgE inhibition was calculated as follows: […]. In some cases if enough PBMCs were obtained, aliquots of PBMCs prepared from the same individuals were used for different experiments.

U266 cells [4] = experiment: Cell viability of U266 cells, trypan blue exclusion; assay type: cell-based, human; details: at the concentrations tested
Method: Cell viability was evaluated using a trypan blue exclusion as previously described. Briefly, a 10 μl of cells suspension from each culture was mixed with equal volume of trypan blue dye. The mixture was loaded into a hemocytometer and cells were counted under a microscope. The percentage of viable cells was calculated as follows: Viable cells (%)=(total number of viable cells)/(total number of cells)×100.

peanut allergy subjects = details: cited from earlier work
[5] = test system: peanut-allergic patients with high levels of IgE; details: cited from earlier work

Molecule: O=C1c2ccccc2C(=O)c2c(O)cc(O)cc21 [1,3-Dihydroxyanthraquinone]
effect on IgE production by U266 cells (in words) (U266 cells [1]; 6 days): dose-dependent inhibition
protection against acute peanut induced anaphylaxis ([2]; 400 μg daily for four weeks): protected against the acute anaphylaxis
median anaphylactic symptom score ([2]; 400 μg daily for four weeks, vs sham): significant lower
body temperature following PN challenge [2]: normal body temperatures
histamine level in plasma ([2]; vs sham): significantly decreased
symptom scores following peanut challenge ([3]; vs sham): significantly weaker reactions
Peanut-Specific IgE levels ([3]; weeks 12 and 16): markedly reduced

Molecule: O=C1c2ccccc2C(=O)c2c1ccc(O)c2O [alizarin]
IC50 (U266 cells [1]; Homo sapiens, U-266, 144 h): 0.762 µg/mL (≈ 3.17 µM)
effect on IgE production by U266 cells (in words) (U266 cells [1]; 6 days): inhibited the IgE production in a dose-dependent manner

Molecule: COc1cc(C[C@H]2C(=O)OC[C@@H]2Cc2ccc(OC)c(OC)c2)ccc1O [arctigenin]
effect on IgE production by U266 cells (in words) (U266 cells [1]; 6 days): inhibited the IgE production by U266 in dose-dependent manner
protection against acute peanut induced anaphylaxis ([2]; 400 μg daily for four weeks): protected against the acute anaphylaxis
body temperature following PN challenge [2]: normal body temperatures
histamine level in plasma ([2]; vs sham): significantly decreased

Molecule: COc1ccc(C[C@H]2COC(=O)[C@@H]2Cc2ccc(O[C@@H]3O[C@H](CO)[C@@H](O)[C@H](O)[C@H]3O)c(OC)c2)cc1OC [arctiin]
effect on IgE production by U266 cells (in words) (U266 cells [1]; 6 days): inhibited the IgE production by U266 in dose-dependent manner

Molecule: CC1(C)O[C@H]2CC(=O)OC[C@]23[C@H]2CC[C@@]4(C)[C@H](c5ccoc5)OC(=O)[C@H]5O[C@]54[C@]2(C)C(=O)C[C@@H]13 [limonin]
inhibition at 20 µg/mL (U266 cells [1]; Homo sapiens, U-266, 144 h, 20 μg/mL, 6 days): 35.1%
effect on IgE production by U266 cells (in words) (U266 cells [1]; 6 days): mild reduction of IgE production
inhibition at 20 µg/mL (human PBMCs): 33.9%
cell viability of U266 cells (U266 cells [4]): no toxicity

IC50 (U266 cells [1]; Homo sapiens, U-266, 144 h): 0.353 µg/mL (≈ 1.38 µM)
Molecule: O=C1c2ccccc2C(=O)c2c(O)c(O)cc(O)c21 [purpurin]
effect on IgE production by U266 cells (in words) (U266 cells [1]; 6 days): inhibited the IgE production in a dose-dependent manner

Molecule: omalizumab: anti-IgE antibody (Xolair, Genentech)
peanut tolerability in oral food challenge (peanut allergy subjects; post-therapy (24-week), vs placebo): greater shift in peanut tolerability
serum peanut specific IgE (peanut allergy subjects; post-therapy): reduction of serum peanut specific IgE
subjects tolerating 4000 mg of peanut flour ([5]; after 7-12 weeks): Twelve of thirteen
subjects tolerating a cumulative dose of 992 mg peanut flour ([5]; first day): All thirteen
patients requiring epinephrine ([5]; in vivo): 2 patients
